Experimental data reported in patent publication US7271239B2, “D-isomers of antimicrobial peptide” (The Research Foundation of State University of New York, priority 2004, dated 2007).

Legend:
C. albicans DIS = experiment: Killing assay in whole human saliva; details: saliva, no peptide
Experimental: FIG. 1. Candidacidal activity of MUC7 12-mer-L, MUC7 12-mer-D, Hsn5 12-mer, and Magainin-II in whole human saliva (WHS). Each peptide at final concentration of 25, 50, and 100 μM was incubated with C. albicans (DIS isolate at 1×10^5 cells/ml) and 20 μl of clarified or unclarified saliva (SL; hatched bars), saliva containing Protease inhibitor cocktail (PIC) (SL+PIC; filled bars), or saliva containing ethylenediamine tetraacetic acid (EDTA) (SL+EDTA; clear bars) at 37° C. for 1.5 h. At the end of incubation, the samples were diluted 20-fold and aliquots plated on SDA. The colony forming units (CFU) were counted after 24 h of incubation. The loss of C. albicans viability was determined by the equation (1−CFU of the test group/CFU of the control group)×100%. The data represent three individual trials, and in each trial the sample was duplicated; the error bars represent standard deviation.
FIG. 4. […] Stimulated whole saliva was collected from 5 healthy subjects. Peptides (50 μM) were incubated with C. albicans cells (1×10^5) in the each individual saliva containing PIC (SL+PIC) at 37° C. for 1.5 hr and the loss of the cell viability was determined. Values represent the mean±S.D. (n=5).
Killing assays in saliva. Unclarified saliva (unstimulated whole saliva) was collected from five healthy individuals during the fasting. Clarified saliva was obtained by passing the unclarified saliva through the 0.2 μm pore size sterile syringe filter (VWR scientific products, West Chester, Pa.). Candidacidal activity assays were performed as described previously (4), except the phosphate buffer was substituted with saliva. […] Saliva without peptides was a blank control. After incubation at 37° C. for 1.5 h, the reactions were diluted 20-fold in PB and aliquots (50 μl, ˜120 cells) of each sample were plated on SDA. The plates were incubated at 37° C. for 1 day aerobically and the number of colony-forming units (CFUs) was counted. Percentage of killing was calculated as (1−amount of viable cells in the test group)/(amount of viable cells in the control group)×100%.

C. albicans strain DIS = assay type: in vivo, mice ICR strain
Experimental: A previously described protocol was adopted (14). Mice were immunosuppressed with two subcutaneous injections of prednisolone at a dose of 100 mg/kg body weight 1 day prior to and 3 days after the infection with C. albicans. Tetracycline hydrochloride in drinking water at a concentration of 0.83 mg/ml was given to mice beginning 1 day before infection. Mice were anesthetized by intramuscular injection with 60 μl of 2 mg/ml chlorpromazine chloride, using a dose of 10 mg/kg body weight of mice. While under anesthesia, a small cotton ball soaked in 0.1 ml aliquot of C. albicans cell suspension (2.5×10^6 cells) was used to swab the entire oral cavity of the anesthetized mice.
Visual evaluation was done by carefully extending the tongue of randomly picked mice using blunt-end forceps, while the mice were under isoflurane sedation. Presence of thick, white curd-like patches indicated candidal infection. At day 3 post-infection, all animals were examined for evidence oral candidal infection by microbiological evaluation. The entire oral cavity of anesthetized mice was swabbed using a sterile calcium alginate disposable swab (Fisher Scientific), dampened with sterile PBS. Cells were then released from the swab into 1 ml PBS. Serial 10-fold dilutions were plated on SDA plates supplemented with streptomycin (30 μg/ml). Plates were incubated for 24 h at 37° C. and yeast cell count expressed as log10 of cfu/ml.
Tongues from sacrificed animals were used for histological studies. They were fixed in 10% formalin and embedded in paraffin. Serial five-μm sections were cut from the paraffin block and stained with periodic acid-Schiff (PAS) reagent for detection of C. albicans.
Mice were randomly divided into various treatment groups with 8 mice per group. Antifungal agents were employed on an equimolar basis, and included amphotericin B (1.75%), clotrimazole (0.66%), MUC7 12-mer (RKSYKCLHKRCR—SEQ ID NO:1) (L; 3%), MUC7 12-mer (D; 3%), MUC7 12-mer (D; 3%) containing Na2EDTA (1 mM), MUC7 12-mer (L; 3%) containing protease inhibitor cocktail (PIC) (1%), and Hsn5 12-mer (AKRHHGYKRKFH—SEQ ID NO:2) (3%). They were all emulsified in Pluronic F127, (20% lipoil), a polymer of polyoxyethylene and polyoxypropylene (non-ionic surfactant). Animals were anesthetized using isoflurane; while sedated, about 30 to 40 μl of the antifungal emulsion was applied on the tongue and spread throughout oral cavity. The treated mice were under sedation for additional 5 min under isoflurane. Animals were not given access to food and water for 1 h following the application.
Fungal burden was re-evaluated quantitatively after 3 and 6 days of treatment, using the same technique as the one used for initial evaluation. Randomly picked mice from each group was subjected to histopathological evaluation, after 6 days of treatment. Blood from randomly sacrificed mice from each treatment group was analyzed for any changes in the serum liver (AST, ALT, ALP etc.) and kidney enzymes (BUN, glucose, creatinine etc) levels.
Statistical analysis was performed using a significance level set at 0.05 (α) and a significant group size (n=8). Initial infection and antifungal treatment efficacy were determined using analysis of variance (ANOVA), expressed as log10 cfu, and Scheffe's multiple comparison test was used to determine the differences between various treatment groups.

[1] = Experimental study I, topical oral application

| Structure (SMILES) | effect of additive alone on C. albicans cell viability (C. albicans DIS) | Log10 cfu/ml (Mean + S.D.), Initial infection (C. albicans strain DIS; Experimental study I, day 3 post-infection, before treatment (baseline)) [Log10 cfu/ml] | Log10 cfu/ml (Mean + S.D.), 3-days treatment (C. albicans strain DIS; [1]) [Log10 cfu/ml] | Log10 cfu/ml (Mean + S.D.), 6-days treatment (C. albicans strain DIS; [1]) [Log10 cfu/ml] | histopathological finding in tongue sections (C. albicans, PAS staining) (C. albicans strain DIS; end of treatment) |
| --- | --- | --- | --- | --- | --- |
| O=C(O)CN(CCN(CC(=O)O)CC(=O)O)CC(=O)O [EDTA, ethylenediamine tetraacetic acid] | very little or no effect |  |  |  |  |
| Clc1ccccc1C(c1ccccc1)(c1ccccc1)n1ccnc1 [Clotrimazole, 1-[o-chloro-a,a-diphenylbenzyl]-imidazole] |  | 4.50 ± 0.20 | 1.58 ± 1.36 | 0.53 ± 0.99 | healthy tissue and absence of visible microorganisms |
